Experimental data: PubChem BioAssay AID1745844 (Carcinogenic Potency Database (CPDB), 2022)
Several values for one entry are separate records, joined by “and”; a condition that tells them apart may be missing. Identical values can stand only once. Activity calls are given as the source filed them. No rule for the calls is given here.

System: rodent lifetime carcinogenesis bioassay, tumor incidence TD50
Experiment: carcinogenic potency in animals, long-term in vivo studies, CPDB compilation (AID 1745844)

With OCl the carcinogen call (mouse, strain B6C3F1, females, in drinking water, site: any site (literature study), lesion: several types, types named in the paper, dosed 103 weeks, study length 106 weeks) was “negative (inactive)”, the carcinogen call (mouse, strain B6C3F1, females, in drinking water, site: liver, lesion: hepatocellular carcinoma, dosed 103 weeks, study length 106 weeks) was “negative (inactive)” and the carcinogen call (mouse, strain B6C3F1, females, in drinking water, site: liver, lesion: several types, types named in the paper, dosed 103 weeks, study length 106 weeks) was “negative (inactive)”. The TD50 (mouse, strain B6C3F1, females, in drinking water, site: lung, lesion: several types, types named in the paper, dosed 103 weeks, study length 106 weeks) was 22900 mg/kg/day (inactive), the TD50 (mouse, strain B6C3F1, males, in drinking water, site: any site (literature study), lesion: several types, types named in the paper, dosed 103 weeks, study length 106 weeks) was 350 mg/kg/day (inactive) and the carcinogen call (mouse, strain B6C3F1, males, in drinking water, site: liver, lesion: hepatocellular carcinoma, dosed 103 weeks, study length 106 weeks) was “negative (inactive)”. For the same molecule, the TD50 (mouse, strain B6C3F1, males, in drinking water, site: liver, lesion: several types, types named in the paper, dosed 103 weeks, study length 106 weeks) was 876 mg/kg/day (inactive), the TD50 (mouse, strain B6C3F1, males, in drinking water, site: lung, lesion: several types, types named in the paper, dosed 103 weeks, study length 106 weeks) was 2040 mg/kg/day (inactive) and the TD50 (rat, strain F344/DuCrj, females, in drinking water, site: liver, lesion: several types, types named in the paper, dosed 104 weeks, study length 112 weeks) was 6300 mg/kg/day (inactive). For the same molecule, the carcinogen call (rat, strain F344/DuCrj, males, in drinking water, site: liver, lesion: cholangioma, dosed 104 weeks, study length 112 weeks) was “negative (inactive)”, the carcinogen call (rat, strain F344/DuCrj, males, in drinking water, site: liver, lesion: fibrous histiocytoma, dosed 104 weeks, study length 112 weeks) was “negative (inactive)” and the carcinogen call (rat, strain F344/DuCrj, males, in drinking water, site: liver, lesion: several types, types named in the paper, dosed 104 weeks, study length 112 weeks) was “negative (inactive)”.
With CN(N=O)c1ccc(F)cc1 the TD50 (rat, strain Fischer 344, males, in drinking water, site: esophagus, lesion: several types, types named in the paper, dosed 50 weeks, study length 114 weeks) was 0.255 mg/kg/day and the TD50 (rat, strain Fischer 344, males, in drinking water, site: liver, lesion: hyperplastic nodule, dosed 50 weeks, study length 114 weeks) was 10.3 mg/kg/day.
ClCc1cccnc1 gave a TD50 (mouse, strain B6C3F1, females, by gavage, site: any site (literature study), lesion: several types, types named in the paper, dosed 91 weeks, study length 104 weeks) of 141 mg/kg/day, a TD50 (mouse, strain B6C3F1, females, by gavage, site: liver, lesion: hepatocellular adenoma + hepatocellular carcinoma + neoplastic nodule, dosed 91 weeks, study length 104 weeks) of 16300 mg/kg/day and a TD50 (mouse, strain B6C3F1, females, by gavage, site: lung, lesion: alveolar/bronchiolar adenoma + alveolar/bronchiolar carcinoma, dosed 91 weeks, study length 104 weeks) of 1970 mg/kg/day. It also gave a TD50 (mouse, strain B6C3F1, females, by gavage, site: stomach, lesion: squamous-cell carcinoma + squamous-cell papilloma, dosed 91 weeks, study length 104 weeks) of 394 mg/kg/day, a TD50 (mouse, strain B6C3F1, males, by gavage, site: any site (literature study), lesion: several types, types named in the paper, dosed 91 weeks, study length 104 weeks) of 64.9 mg/kg/day and a TD50 (mouse, strain B6C3F1, males, by gavage, site: liver, lesion: hepatocellular adenoma + hepatocellular carcinoma + neoplastic nodule, dosed 91 weeks, study length 104 weeks) of 324 mg/kg/day. For the same molecule, the TD50 (mouse, strain B6C3F1, males, by gavage, site: lung, lesion: alveolar/bronchiolar adenoma + alveolar/bronchiolar carcinoma, dosed 91 weeks, study length 104 weeks) was 624 mg/kg/day, the TD50 (mouse, strain B6C3F1, males, by gavage, site: stomach, lesion: squamous-cell carcinoma + squamous-cell papilloma, dosed 91 weeks, study length 104 weeks) was 161 mg/kg/day and the TD50 (rat, strain Fischer 344, females, by gavage, site: any site (literature study), lesion: several types, types named in the paper, dosed 93 weeks, study length 104 weeks) was 160 mg/kg/day (inactive). For the same molecule, the TD50 (rat, strain Fischer 344, males, by gavage, site: stomach, lesion: squamous-cell carcinoma + squamous-cell papilloma, dosed 93 weeks, study length 104 weeks) was 433 mg/kg/day.
C=CC was tested, and the carcinogen call (mouse, strain B6C3F1, females, inhaled, site: any site (literature study), lesion: several types, types named in the paper, dosed 103 weeks, study length 105 weeks) was “negative (inactive)”, the carcinogen call (mouse, strain B6C3F1, males, inhaled, site: any site (literature study), lesion: several types, types named in the paper, dosed 103 weeks, study length 105 weeks) was “negative (inactive)” and the TD50 (mouse, strain Swiss, females, inhaled, site: any site (literature study), lesion: malignant tumor, dosed 78 weeks, study length 104 weeks) was 20100 mg/kg/day (inactive). For the same molecule, the TD50 (mouse, strain Swiss, females, inhaled, site: any site (literature study), lesion: several types, types named in the paper, dosed 78 weeks, study length 104 weeks) was 10100 mg/kg/day (inactive), the TD50 (mouse, strain Swiss, females, inhaled, site: liver, lesion: hepatoma, dosed 78 weeks, study length 104 weeks) was 286000 mg/kg/day (inactive) and the TD50 (mouse, strain Swiss, females, inhaled, site: lung, lesion: adenocarcinoma, dosed 78 weeks, study length 104 weeks) was 1.2e+06 mg/kg/day (inactive). The TD50 (mouse, strain Swiss, females, inhaled, site: lung, lesion: adenoma, dosed 78 weeks, study length 104 weeks) was 19800 mg/kg/day (inactive), the carcinogen call (mouse, strain Swiss, males, inhaled, site: any site (literature study), lesion: malignant tumor, dosed 78 weeks, study length 104 weeks) was “negative (inactive)” and the carcinogen call (mouse, strain Swiss, males, inhaled, site: any site (literature study), lesion: several types, types named in the paper, dosed 78 weeks, study length 104 weeks) was “negative (inactive)”. For the same molecule, the carcinogen call (mouse, strain Swiss, males, inhaled, site: liver, lesion: hepatoma, dosed 78 weeks, study length 104 weeks) was “negative (inactive)”, the carcinogen call (mouse, strain Swiss, males, inhaled, site: lung, lesion: adenocarcinoma, dosed 78 weeks, study length 104 weeks) was “negative (inactive)” and the carcinogen call (mouse, strain Swiss, males, inhaled, site: lung, lesion: adenoma, dosed 78 weeks, study length 104 weeks) was “negative (inactive)”. The carcinogen call (rat, strain Fischer 344, females, inhaled, site: any site (literature study), lesion: several types, types named in the paper, dosed 103 weeks, study length 104 weeks) was “negative (inactive)”, the TD50 (rat, strain Fischer 344, females, inhaled, site: liver, lesion: hepatocellular adenoma + hepatocellular carcinoma + neoplastic nodule, dosed 103 weeks, study length 104 weeks) was 20500 mg/kg/day and the TD50 (rat, strain Fischer 344, males, inhaled, site: any site (literature study), lesion: several types, types named in the paper, dosed 103 weeks, study length 104 weeks) was 15500 mg/kg/day (inactive). It also gave a TD50 (rat, strain Fischer 344, males, inhaled, site: liver, lesion: hepatocellular adenoma + hepatocellular carcinoma + neoplastic nodule, dosed 103 weeks, study length 104 weeks) of 4610 mg/kg/day.
With Clc1nc(Cl)nc(Nc2ccccc2Cl)n1 the TD50 (mouse, strain B6C3F1, females, in feed, site: any site (literature study), lesion: several types, types named in the paper, dosed 103 weeks, study length 107 weeks) was 99.2 mg/kg/day (inactive), the TD50 (mouse, strain B6C3F1, females, in feed, site: liver, lesion: hepatocellular adenoma + hepatocellular carcinoma + neoplastic nodule, dosed 103 weeks, study length 107 weeks) was 2550 mg/kg/day and the TD50 (mouse, strain B6C3F1, females, in feed, site: lung, lesion: alveolar/bronchiolar adenoma + alveolar/bronchiolar carcinoma, dosed 103 weeks, study length 107 weeks) was 1690 mg/kg/day. The carcinogen call (mouse, strain B6C3F1, males, in feed, site: any site (literature study), lesion: several types, types named in the paper, dosed 103 weeks, study length 107 weeks) was “negative (inactive)”, the carcinogen call (rat, strain Fischer 344, females, in feed, site: any site (literature study), lesion: several types, types named in the paper, dosed 103 weeks, study length 104 weeks) was “negative (inactive)” and the TD50 (rat, strain Fischer 344, females, in feed, site: liver, lesion: hepatocellular adenoma + hepatocellular carcinoma + neoplastic nodule, dosed 103 weeks, study length 104 weeks) was 1050 mg/kg/day. The TD50 (rat, strain Fischer 344, males, in feed, site: any site (literature study), lesion: several types, types named in the paper, dosed 103 weeks, study length 104 weeks) was 246 mg/kg/day (inactive).
With CC(CN1CC(=O)NC(=O)C1)N1CC(=O)NC(=O)C1 (centres undefined) the TD50 (mouse, strain B6C3F1, females, i.p., site: all sites, lesion: leukemia + lymphoma, histiocytic type + lymphoma, dosed 52 weeks, study length 86 weeks) was 23.7 mg/kg/day, the TD50 (mouse, strain B6C3F1, females, i.p., site: all sites, lesion: leukemia + lymphoma, dosed 52 weeks, study length 86 weeks) was 23.7 mg/kg/day and 25.9 mg/kg/day and the TD50 (mouse, strain B6C3F1, females, i.p., site: all sites, lesion: lymphoma, histiocytic type, dosed 52 weeks, study length 86 weeks) was 53.7 mg/kg/day. For the same molecule, the TD50 (mouse, strain B6C3F1, females, i.p., site: any site (literature study), lesion: several types, types named in the paper, dosed 52 weeks, study length 86 weeks) was 16.8 mg/kg/day, the TD50 (mouse, strain B6C3F1, males, i.p., site: any site (literature study), lesion: several types, types named in the paper, dosed 52 weeks, study length 86 weeks) was 262 mg/kg/day (inactive) and the TD50 (mouse, strain B6C3F1, males, i.p., site: lung, lesion: alveolar/bronchiolar adenoma + alveolar/bronchiolar carcinoma, dosed 52 weeks, study length 86 weeks) was 212 mg/kg/day. The TD50 (rat, strain Sprague-Dawley, females, i.p., site: any site (literature study), lesion: several types, types named in the paper, dosed 52 weeks, study length 81 weeks) was 6.48 mg/kg/day, the TD50 (rat, strain Sprague-Dawley, females, i.p., site: uterus, lesion: adenocarcinoma, NOS, dosed 52 weeks, study length 79 weeks) was 10.7 mg/kg/day and the TD50 (rat, strain Sprague-Dawley, females, i.p., site: uterus, lesion: adenocarcinoma, NOS, dosed 52 weeks, study length 81 weeks) was 11.3 mg/kg/day. The TD50 (rat, strain Sprague-Dawley, males, i.p., site: any site (literature study), lesion: several types, types named in the paper, dosed 52 weeks, study length 81 weeks) was 9.55 mg/kg/day (inactive) and the TD50 (rat, strain Sprague-Dawley, males, i.p., site: liver, lesion: hepatocellular adenoma + hepatocellular carcinoma + neoplastic nodule, dosed 52 weeks, study length 81 weeks) was 105 mg/kg/day.
In the case of CN(C)c1ccc(N=NS(=O)(=O)O)cc1, the TD50 (mouse, strain B6C3F1, females, in feed, site: any site (literature study), lesion: several types, types named in the paper, dosed 78 weeks, study length 95 weeks) is reported as 259 mg/kg/day, the TD50 (mouse, strain B6C3F1, females, in feed, site: liver, lesion: hepatocellular adenoma + hepatocellular carcinoma + neoplastic nodule, dosed 78 weeks, study length 95 weeks) is reported as 152 mg/kg/day and the TD50 (mouse, strain B6C3F1, females, in feed, site: liver, lesion: hepatocellular adenoma + hepatocellular carcinoma, dosed 78 weeks, study length 95 weeks) is reported as 152 mg/kg/day (inactive). The TD50 (mouse, strain B6C3F1, females, in feed, site: lung, lesion: alveolar/bronchiolar adenoma + alveolar/bronchiolar carcinoma, dosed 78 weeks, study length 95 weeks) was 1750 mg/kg/day, the carcinogen call (mouse, strain B6C3F1, males, in feed, site: any site (literature study), lesion: several types, types named in the paper, dosed 78 weeks, study length 94 weeks) was “negative (inactive)” and the carcinogen call (rat, strain Fischer 344, females, in feed, site: any site (literature study), lesion: several types, types named in the paper, dosed 78 weeks, study length 105 weeks) was “negative (inactive)”. The carcinogen call (rat, strain Fischer 344, males, in feed, site: any site (literature study), lesion: several types, types named in the paper, dosed 78 weeks, study length 105 weeks) was “negative (inactive)”.
O=C1c2ccccc2-c2ccc3c4c(ccc1c24)-c1ccccc1C3=O was tested, and the carcinogen call (mouse, strain B6C3F1, females, in feed, site: any site (literature study), lesion: several types, types named in the paper, dosed 106 weeks, study length 106 weeks) was “negative (inactive)”, the TD50 (mouse, strain B6C3F1, females, in feed, site: liver, lesion: hepatocellular adenoma + hepatocellular carcinoma + neoplastic nodule, dosed 106 weeks, study length 106 weeks) was 23900 mg/kg/day and the TD50 (mouse, strain B6C3F1, males, in feed, site: all sites, lesion: lymphoma, dosed 106 weeks, study length 106 weeks) was 10900 mg/kg/day. The TD50 (mouse, strain B6C3F1, males, in feed, site: any site (literature study), lesion: several types, types named in the paper, dosed 106 weeks, study length 106 weeks) was 4410 mg/kg/day, the TD50 (mouse, strain B6C3F1, males, in feed, site: liver, lesion: hepatocellular adenoma + hepatocellular carcinoma + neoplastic nodule, dosed 106 weeks, study length 106 weeks) was 8610 mg/kg/day and the TD50 (mouse, strain B6C3F1, males, in feed, site: lung, lesion: alveolar/bronchiolar adenoma + alveolar/bronchiolar carcinoma, dosed 106 weeks, study length 106 weeks) was 19100 mg/kg/day. The carcinogen call (rat, strain Fischer 344, females, in feed, site: any site (literature study), lesion: several types, types named in the paper, dosed 104 weeks, study length 104 weeks) was “negative (inactive)”, the TD50 (rat, strain Fischer 344, males, in feed, site: any site (literature study), lesion: several types, types named in the paper, dosed 104 weeks, study length 104 weeks) was 787 mg/kg/day (inactive) and the TD50 (rat, strain Fischer 344, males, in feed, site: liver, lesion: hepatocellular adenoma + hepatocellular carcinoma + neoplastic nodule, dosed 104 weeks, study length 104 weeks) was 2790 mg/kg/day.
